In US20140128472A1, “TREATMENT AND PREVENTION OF DISEASES RELATED TO OXIDATIVE STRESS” (UNIVERSITY OF PÉCS, priority 2011, published 2014):
Entries after “also recorded” stand apart in the source; their conditions may differ.

Key:
Akt (protein kinase B) = assay: Insulin-induced phosphorylation of Akt in 3T3-L1 adipocytes (Western blot); type: cell-based, mouse
Protocol: (§1) Primary cultures of mouse embryo fibroblasts (3T3-L1) were purchased from ATCC (Manassas, US). Early passages of 3T3-L1 fibroblasts were cultured in Dulbecco's modified Eagle medium ((DMEM, Invitrogen, CAT number: 41966-029; Sigma Aldrich CAT number: D6046) supplemented with 10% Fetal Bovine Serum (Gibco, CAT number: 16170-078), 100 U/ml penicillin and 0.1 mg/ml streptomycin (Gibco, CAT number: 15070-063) and 398 nM p-, m-, or o-Tyr. DMEM contained 25 or 5 mM glucose (depending on the experiment), L-glutamine, and pyruvate. Cells were grown in a humidified incubator at 37° C. and 5% CO2. Differentiation medium consisted of DMEM supplemented with 10% Fetal Bovine Serum (FBS, Gibco, Csertex, Budapest, Hungary, CAT number: 10106-169) (FBS), to which a cocktail was added containing […] isobuthylmethylxanthine (Sigma Aldrich, CAT number: I 5879), 0.17 nM insulin (Sigma Aldrich, CAT number: I 9278) and 250 nM dexamethasone (Sigma Aldrich, CAT number: 861871). From Day 4 onward, cells were maintained in DMEM/10% FBS containing 1.5 pg/ml insulin with a media change every other day until experimental treatments were initiated. For all treatments, cells were incubated overnight in serum-deprived medium after 90% of the cell population reached the adipocyte phenotype.
Following the treatment cells were washed twice with Saline (4° C.) to remove any trace of the medium, then exposed to 80 μL lysis buffer/plate, containing 1.15% Triton X, 1M Trisbase, pH 7.4, 0.5 M EDTA, pH 8, 0.2 M EGTA, pH 7, 0.1 M dithiothreitol (DTT), 5 mg/ml phenylmethylsulfonyl fluoride (PMSF), 0.1 M Na3VO4, 5 mg/ml leupeptin, 5 mg/ml aprotinin, Phoshatase Inhibitor Coctail 1 and 2 (Sigma Aldrich, CAT number: P2850 and P5726). Adypocytes were scraped off mechanically and then frozen at −70° C.
The samples of EC lysates were sonicated (2 min) and centrifuged (10 min, 13,000 rpm, at 4° C.). Protein content of samples was determined by the Bradford method using bovine serum albumin as a standard Bio-Rad Benchmark Plus. Samples were solubilized in a buffer of 100 mM Tris-HCl (pH 6.8), 4.0% sodium dodecyl sulphate (SDS), 20% glycerol, 200 mM DTT, and 0.2% bromophenol blue. […]
Membranes were incubated overnight with the immunoglobulin G (IgG) monoclonal antibodies diluted to 1:1000 in TBS-T (0.1%), containing 5% bovine serum (BS). […] Blots were detected using enhanced chemiluminescence (ECL; Pierce Biotech, Bio-Rad, Budapest, Hungary). Computerized densitometry (integrated optical density) of the specific bands was analyzed with Scion Image for Windows Software. […]

3T3-L1 adipocytes = assay: Erythropoietin-dependent uptake of deoxy-D-glucose into 3T3-L1 adipocytes; type: cell-based, mouse; details: 5 mM glucose; various concentrations of EPO
Protocol: as §1, with “From Day 4 onward, cells were maintained in DMEM/10% FBS containing 1.5 pg/ml insulin with a media change every other day until experimental treatments were initiated. For all treatments, cells were incubated overnight in serum-deprived medium after 90% of the cell population reached the adipocyte phenotype.” left out
[…] The sediment was dissolved in 70 μl of lysis-buffer and glucose uptake was assessed by scintillation counting measuring 30 μl of the sample with a Beckman LS 5000 TD counter in counts per minute (CPM) for five minutes each, using an average activity as the outcome. Samples were frozen overnight at −70° C. and protein concentration was measured using a Hitachi spectrophotometer. […]

Akt (PKB) = assay: Erythropoietin-dependent phosphorylation of Akt (PKB) in 3T3-L1 adipocytes (Western blot); type: cell-based, mouse; details: 25 mM glucose; various concentrations of erythropoietin
[1] = Body weight of rats during four-week tyrosine isomer supplementation; type: in vivo, Sprague-Dawley rats; details: four weeks, 1.76 mg/die, vs vehicle
Protocol: In further tyrosine isomer incorporation studies when effects of chronic oral p-Tyr and o-Tyr supplementation of rats on the o-Tyr level and insulin-induced relaxation of isolated arterial segments were studied, 18 Male Sprague-Dawley rats (5-6 week-old) were used. Rats were orally supplied with either 1.76 mg/die of p-Tyr or o-Tyr or vehicle during six days per week for four weeks. […] At the end of four-week treatment, HPLC and vasomotor studies were performed. In another group of rats, p-Tyr/o-Tyr supplementation was discontinued for four weeks (“washout” period), after which they were sacrificed for HPLC and vasomotor studies.

[2] = Example p-Tyr treatment regimen in a patient (hsCRP, serum insulin, plasma glucose); type: in vivo, human
Protocol: As a further example, a patient attends medical control with a complaint of high blood pressure and increased stress at regular daily work in the last month. In this situation they relate an increased intake of coffein and sugar. Their high sensitivity C-reactive protein (hsCRP) level is measured as well as their serum insulin, and plasma glucose level.

[3] = system: thoracic and abdominal aorta, renal and femoral arteries; assay: Insulin-induced relaxation of isolated arterial segments after oral tyrosine isomer supplementation of rats; design: species or system Sprague-Dawley rats; details: proposed experiment: sustained in vivo supplementation with o-Tyr and p-Tyr together

Structure (SMILES) | Insulin-induced Akt phosphorylation (Akt (protein kinase B); cells grown on m-Tyr or o-Tyr, insulin 200 and 400 nmol/l) | EPO-induced glucose uptake compared to the para-Tyr control (3T3-L1 adipocytes) | EPO-dependent Akt phosphorylation (Akt (PKB)) | Body weight [1] | Insulin-induced Akt phosphorylation (Akt (protein kinase B); cells grown on high glucose media with p-Tyr only) | Increase in Akt (protein kinase B) phosphorylation by insulin compared to controls (Akt (protein kinase B); cells grown on p-Tyr and low glucose, increasing doses of insulin) | hsCRP, serum insulin and plasma glucose level ([2]; p-Tyr 3 g daily (three times 1 g), after a month) | hsCRP, serum insulin and plasma glucose level ([2]; p-Tyr therapy continued, after a further month) | Diminished response to insulin in isolated arterial segments [3]
N[C@@H](Cc1ccccc1O)C(=O)O [o-Tyr, Ortho-L-tyrosine] | inhibited the insulin-induced Akt-phosphorylation; also recorded: could not be significantly enhanced by insulin | inhibited | inhibited the normal increase in the Akt phosphorylation | no difference between the groups |  |  |  |  | 
N[C@@H](Cc1ccc(O)cc1)C(=O)O [p-Tyr, Para-L-tyrosine] |  |  |  | no difference between the groups | significantly lower Akt-phosphorylation | 3 fold | somewhat diminished | returned to the medium normal range | reversed
